Data from patent US11021753B2, “Mutant genes related to drug resistance and relapse of acute lymphoblastic leukaemia and a use thereof” (SHANGHAI CHILDREN'S MEDICAL CENTER, SHANGHAI JIAO TONG …, priority 2015, dated 2021).
Read-outs that look alike come from different tables or passages of the source.

Experiments:
[1] = system: PRPS1 loss-of-function mutants A87T and M115T; assay: Inhibition of GDP/ADP on PRPS1 protein activity in vitro (Kinase-Glo); format: biochemical, human; settings: known loss-of-function mutants A87T and M115T compared with wild-type
Experimental: (§1) ATP (Item No. A7699), ADP (Item No. A2754), GDP (Item No. G7172) and ribose-5-phosphate (Item No. R7750) were purchased from Sigma. The reaction system comprised 50 mM Tris pH 7.5, 2 mM phosphate, 1 mM DTT, 10 mM MgCl2, 0.5 mM ribose-5-phosphate, 0.5 mM ATP and PRPS1 protein.
(§2) (ii) Inhibition of GDP/ADP on PRPS1 protein activity: 3 times gradient dilution of the GDP/ADP with an initial concentration of 5 mM And 15 μL of PRPS1 in vitro enzyme reaction system was prepared, added into 384-well plate, and reacted at 37° C. for 30 minutes. Then 10 μL of Kinase-Glo reagent (Item No. V3722) from Promega was added reacted at 37° C. for 15 minutes to terminate the reaction. The chemiluminescence values can be read in a microplate reader, and the inhibition of GDP/ADP on PRPS1 protein activity was calculated by Graphpad 5.0.

[2] = system: PRPS1 mutants S103T, 5103N, N144S, T303S, K176N, D183E, A190T, A190V, L191F; assay: as above; format: biochemical, human; settings: relapse-specific PRPS1 mutants compared with PRPS1 wild-type
Experimental: as §1, §2

[3] = system: Reh cells expressing PRPS1 mutant genes; assay: Cell-level feedback regulation of PRPS1 activity by GDP/ADP (13C5-PRPP by LC-MS); format: cell-based, human; settings: each PRPS1 mutant gene in experimental group; 2 mM ADP or 0.5 mM GDP, 4 hours
Experimental: (§3) In the present invention, the intracellular activity of PRPS1 was detected by means of isotope labeling in combination with the technologies of cell biology and metabolomics, and based on this, the effect of nucleotide GDP/ADP on PRPS1 activity was evaluated. The preferred embodiment is as follows:
(§4) (i) Cell culture: Reh cells expressing the PRPS1 wild-type and various PRPS1 mutants were counted and seeded into 6 cm culture dish, and 3×10^6 cells were inoculated in each well.
(§5) (ii) Cell treatment: 2 mM ADP or 0.5 mM GDP was added to the culture dish and cells were treated for 4 hours, after that, the cells were resuspended using glucose-free medium (Gibco, cat #11879-020), and 10 mM glucose labeled with ^13C6 was added into each 6 cm culture dish (Cambridge isotope laboratories, cat #CLM-1396-1) and labeled for 5 minutes. (iii) Cell collection: The cells were transferred to a centrifuge tube, centrifuged at 3,000 g for 5 minutes, the supernatant was removed, and the cells were lysed using 3×10^6 cells/200 μl 80% methanol. (iv) The level of ^13C5-PRPP was detected by LC-MS (ABI 5500 Qtrap coupled with Waters Acquity UPLC), and standard curve quantification was made using PRPP (sigma, cat #P8296). The activity of PRPS1 was determined according to the level of PRPP.

[4] = system: Reh cells expressing the PRPS1 wild-type; assay: as above; format: cell-based, human; settings: wild-type experimental group; 2 mM ADP or 0.5 mM GDP, 4 hours
Experimental: as §3, §4, §5

[5] = system: Reh cells expressing different PRPS1 mutant genes; assay: Drug susceptibility test of 6-MP / 6-TG (cell survival, CellTiter-Glo); format: cell-based, human; settings: Reh cells expressing PRPS1 mutant genes compared with control group expressing empty load; 72 hours
Experimental: Reh cells are a strain of human acute B lymphoblastic leukemia. The susceptibility of the PRPS1 mutant to the chemotherapeutic drug 6-MP was determined by the survival rate of Reh cells expressing different PRPS1 mutant genes which were treated by chemotherapeutic drug 6-MP, wherein the process comprises steps of
(i) Cell inoculation: Reh cells expressing the PRPS1 wild-type and all kinds of PRPS1 mutants were counted and seeded into 96-well plates with inoculated 10^4 cells per well. Five parallel wells were designed.
Drugs were added into 96-well plates with grown cells and incubated at 37° C. for 72 hours.
The susceptibility of the PRPS1 mutant to the chemotherapeutic drug 6-TG was determined by the survival rate of Reh cells expressing different PRPS1 mutant genes which were treated by chemotherapeutic drug 6-TG, in which the process comprises steps of
(i) Cell inoculation: Reh cells expressing the PRPS1 wild-type and all kinds of PRPS1 mutants were counted and seeded into 96-well plates with inoculated 10^4 cells per well. Five parallel wells were set up.
Drug were added into 96-well plates with grown cells and incubated at 37° C. for 72 hours.

[6] = system: Reh cells expressing PRPS1 mutant genes; assay: Identification of cells apoptosis (Annexin V / 7-AAD flow cytometry); format: cell-based, human; settings: 10 μg/ml 6-MP or 6-TG, 72 hours; cells expressing PRPS1 mutant genes compared with control group expressing empty load
Experimental: (i) Cell inoculation: Reh cells expressing the PRPS1 wild-type and various PRPS1 mutants were counted and seeded into 12-well plates with inoculated 3×10^5 cells per well. Duplicated wells were set up.
(ii) Cell treatment: the drug 6-MP or 6-TG with concentration of 10 μg/ml was added to a 12-well plate with grown cells and incubated at 37° C. for 72 hours.
(iii) Cell staining: After 72 hours, the cells were collected by centrifugation, washed with PBS buffer, added in […] and 7-AAD dye labeled with PE from BD, and incubated for 15 minutes at room temperature. The cells were centrifuged to discard the supernatant and washed twice with PBS. (iv) Identification by Flow Cytometer: proportion of cell apoptosis was determined using Flow Cytometer from Canto II BD.

HGPRT = HGPRT (Homo sapiens, UniProt P00492); settings: for TIMP generation (6-MP conversion by HGPRT): 100 μM 6-MP as reaction substrate, increased concentration of hypoxanthine; for affinity to HGPRT (Km): compared with that of 6-MP and HGPRT
Sequence of HGPRT (P00492 whole entry): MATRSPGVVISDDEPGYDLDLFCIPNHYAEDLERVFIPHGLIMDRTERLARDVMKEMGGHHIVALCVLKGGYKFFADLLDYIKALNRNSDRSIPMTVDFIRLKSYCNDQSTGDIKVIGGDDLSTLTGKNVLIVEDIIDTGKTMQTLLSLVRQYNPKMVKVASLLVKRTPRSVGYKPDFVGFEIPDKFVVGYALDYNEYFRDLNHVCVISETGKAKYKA
Experimental: Chemotherapeutic drug 6-MP is an analog of hypoxanthine, and both 6-MP and hypoxanthine are substrates of HGPRT. The present invention established an in vitro enzymatic reaction to determine the Km value of 6-MP and hypoxanthine reacting with HGPRT, respectively, which reflects the affinity of HGPRT to hypoxanthine and 6-MP. The preferred embodiment is as follows:
The specific reaction system is as follows:
Hypoxanthine and 6-MP were diluted in a concentration gradient, reacted at 37° C. for 1 hour, and 80% methanol was added to terminate the reaction. The contents of IMP and TIMP were detected by LC-MS. The reaction curves were plotted and the Km values of hypoxanthine and 6-MP were calculated by Graphpad 5.0 software.

Reh-PRPS1-A190T cells [7] = assay: Concentration of 6-MP metabolites in cells treated with Lometrexol (LC-MS); format: cell-based, human; settings: Reh-PRPS1-A190T treated with Lometrexol vs control
Source text: (§6) (v) Determining the concentration of 6-MP metabolites: the same as Embodiment 13.

Reh-PRPS1-S103T cells [8] = assay: as above; format: cell-based, human; settings: Reh-PRPS1-S103T treated with Lometrexol vs control
Source text: as §6

Reh-PRPS1-A190T cells [9] = assay: Intracellular concentration of hypoxanthine in cells treated with Lometrexol (LC-MS); format: cell-based, human; settings: Reh-PRPS1-A190T treated with Lometrexol vs control
Experimental: (§7) (iii) Cell collection: cells were pipetted out from the well and centrifuged at 1500 rpm to remove the supernatant. The cells were washed with PBS once, and centrifuged again (500 g). Removed the supernatant.
(§8) (iv) Cell lysis: the cells were lysed using 200 μl 80% methanol per 3×10^6 cells.
(§9) (v) The lysed cells were centrifuged by 14,000 g at 4° C. for 10 minutes, and then the supernatant was transferred to a 1.5 ml EP tube.
(§10) (vi) The contents of hypoxanthine, AICAR and Inosine were detected by LC-MS technology (ABI 5500 Qtrap coupled with Waters Acquity UPLC), and standard curves for absolute quantification were made using ^13C5, ^15N4-hypoxanthine (Cambridge isotope laboratories, cat #489522), AICAR (sigma, cat #A9978) and Inosine (Sigma, cat #I4125), respectively.
(§11) (vi) Determining the intracellular concentration of hypoxanthine: the same as Embodiment 14.

Reh-PRPS1-S103T cells [10] = assay: as above; format: cell-based, human; settings: Reh-PRPS1-S103T treated with Lometrexol vs control
Experimental: as §7, §8, §9, §10, §11

[11] = system: Reh cells expressing PRPS1 mutants; assay: Identification of intracellular metabolites of 6-MP by LC-MS; format: cell-based, human; settings: 10 μM 6-MP, 4 hours; mutants in experimental groups compared with control group
Experimental: 6-MP is a prodrug and needs to be undergone metabolic reactions in vivo to form TIMP and TGMP before it works, as shown in FIG. 9C. The identification procedure is as follows:
(i) Cell inoculation: Reh cells expressing the PRPS1 wild-type and various PRPS1 mutants were counted and seeded into 6 cm culture dish with inoculated 3×10^6 cells in each plate.
(ii) Cell treatment: 10 μM chemotherapy drug 6-MP was added into each 6 cm culture dish and treated for 4 hours;
(iii) Cell collection: The cells were transferred to a centrifuge tube, centrifuged at 3,000 g for 5 minutes to remove the supernatant, and lysed at 3×10^6 cells per 200 μl 80% methanol;
(iv) The amounts of metabolites from chemotherapeutic drugs 6-MP, TIMP, TGMP, r-MP, r-TG and r-MMP were measured by LC-MS (ABI 5500 Qtrap coupled with Waters Acquity UPLC), and standard curve for quantification was made using TIMP (Jean Bioscience, […], r-TG (Sigma, cat #858412), r-MMP (Sigma, cat #M4002) respectively.

Q: For `Nc1ncnc2c1ncn2[C@@H]1O[C@H](COP(=O)(O)OP(=O)(O)O)[C@@H](O)[C@H]1O` [ADP], which “inhibition of GDP/ADP on PRPS1 protein activity” value (from here on “inhibition of GDP/ADP”) [1] is on record?
A: The value was “no significant difference”.

Q: What about the “inhibition of GDP/ADP” value [2] of the same compound?
A: The value was “significantly lower”.

Q: What about the “concentration of PRPP product after adding the nucleotide” value [3] of the same compound?
A: The value was “not affected”.

Q: What about the “concentration of PRPP after adding the nucleotide” value [4] of the same compound?
A: Its value is “decreased”.

Q: `Nc1nc2nc[nH]c2c(=S)[nH]1` [6-TG, 6-thioguanine] was tested. Which “IC50 values of drug” value [5] did it give?
A: The value was “significantly increased”.

Q: And the “apoptotic ratio of cells” value [6]?
A: Its value is “significantly down-regulated”.

Q: For `Nc1nc2c(ncn2[C@@H]2O[C@H](COP(=O)(O)OP(=O)(O)O)[C@@H](O)[C@H]2O)c(=O)[nH]1` [GDP], which “inhibition of GDP/ADP” value [1] is on record?
A: The value was “no significant difference”.

Q: What about the “inhibition of GDP/ADP” value [2] of the same compound?
A: Its value is “significantly lower”.

Q: And the “concentration of PRPP product after adding the nucleotide” value [3]?
A: The value was “not affected”.

Q: And the “concentration of PRPP after adding the nucleotide” value [4]?
A: The value was “decreased”.

Q: What does the source list for `O=c1[nH]cnc2nc[nH]c12` [hypoxanthine]?
A: TIMP generation (6-MP conversion by HGPRT) (HGPRT): significantly inhibited; TIMP generation (6-MP conversion by HGPRT) (HGPRT; listed as HX): can suppress; affinity to HGPRT (Km) (HGPRT): significantly higher; affinity to HGPRT (Km) (HGPRT; listed as HX): preferred to 6-MP

Q: With Lometrexol as the compound, how does the “intracellular levels of 6-MP metabolites TIMP and TGMP” value (Reh-PRPS1-A190T cells [7]) read?
A: The value was “significantly increased”.

Q: And the “intracellular levels of 6-MP metabolites TIMP and TGMP” value (Reh-PRPS1-S103T cells [8])?
A: The value was “significantly increased”.

Q: And the concentration of hypoxanthine (Reh-PRPS1-A190T cells [9])?
A: The concentration of hypoxanthine was “significantly decreased”.

Q: What about the concentration of hypoxanthine (Reh-PRPS1-S103T cells [10]) of the same compound?
A: The concentration of hypoxanthine was “significantly decreased”.

Q: Which results are given for `Sc1ncnc2nc[nH]c12` [6-MP, 6-mercaptopurine]?
A: IC50 values of drug [5]: significantly increased; apoptotic ratio of cells [6]: significantly down-regulated; contents of 6-MP metabolites TIMP, TGMP and r-MP, r-TG and r-MMP in cells [11]: significantly lower
